Source: patent US12459951B2, “Compounds that interact with RAS superfamily proteins for treatment of cancers, inflammatory diseases, rasopathies, and fibrotic disease” (SHY Therapeutics, LLC, priority 2022, dated 2025)

Columns and labels:
[1] = tested on: IL6; test: IL-6 Quantification Assay (ELISA), LPS-stimulated RAW 264.7; assay type: cell-based; set-up: inhibition: dose or concentration left out as unconfirmed; details: Mus musculus, RAW264.7; read-out: IL-6: % inh.
[2] = tested on: Smad2/Smad3 phosphorylation; test: Phospho-Smad2/3 Inhibition Assay (western blot), Panc-1; assay type: cell-based, human; details: at 10 μM, Panc-1 pancreatic cancer cell line; starred symbols = activation
Outline: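 Panc-1 cells (KRas G12D), starved overnight in 0.5% FBS, treated 3 h at 37° C with compound at 10 μM final (0.3% DMSO) or serial dilutions for IC50, then stimulated with 10 ng/ml TGF-b1 for 1 h. Phospho-Smad2 (Ser465/467) and phospho-Smad3 (Ser423/425) detected by western blot.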

[3] = tested on: KRas wild type; test: Ras GTP Binding Domain Inhibition Assay (Ras Superfamily Assay); details: 20 μM compound; for KRas wild type + SOS: % inh.: with SOS; for KRas wild type: % inh.: without SOS
Outline: (§1)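 Binding of 100 nM fluorescent GTP (Cy3 or Cy5, 45 min, room temperature) was read after washes from plate-captured His-tagged protein. Beforehand, compounds at 20 μM or in dilution series for IC50 sat 3 h on the protein in Tris buffer pH 7.4 or 7.0 with 1% DMSO, Sos GEF optionally added for the last hour.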

[4] = target: T1, Rac-1 (Homo sapiens, UniProt P63000); test: as above; details: read-out: Rac-1: % inh.
T1 construct: made in house
Outline: as §1

[5] = tested on: KRas G12D mutant; test: as above; details: 20 μM compound; for KRas G12D mutant + SOS: % inh.: with SOS; for KRas G12D mutant: % inh.: without SOS
Outline: as §1

[6] = tested on: TNF-alpha; test: TNF-alpha Quantification Assay (ELISA), LPS-stimulated RAW 264.7; assay type: cell-based; details: Mus musculus, RAW264.7; at 10 μM; read-out: TNFα: % inh.

In the case of `Cc1c(-c2ccn(C)n2)cn2nc(-c3nccn3C)nc(Nc3ccncn3)c12.Cl` [Compound 116, 5-Methyl-2-(1-methyl-1H-imidazol-2-yl)-6-(1-methyl-1H-pyrazol-3-yl)-N-(pyrimidin-4-yl)pyrrolo[2,1-f][1,2,4]triazin-4-amine hydrochloride salt], the inhibition [1] is reported as 25 to 49%, the “% inh of Smad2/3 phosphorylation in Panc-1” value (“% inh … in Panc-1” below) [2] is reported as “D (D = 76-100% inhibition)” and the “KRas wild type + SOS: % inh.” value [3] is reported as “D (D = 76-100% inhibition)”. The “KRas wild type: % inh.” value [3] was “C (C = 50-75% inhibition)”, the inhibition at 20 µM [4] was 50 to 75% and the “KRas G12D mutant + SOS: % inh.” value [5] was “C (C = 50-75% inhibition)”. For the same compound, the “KRas G12D mutant: % inh.” value [5] was “C (C = 50-75% inhibition)” and the inhibition at 10 µM [6] was 0%.
`Cc1c(-c2ccn(C3CC3)n2)cn2nc(-c3nccn3C)nc(Nc3cc(OC4CC4)ccn3)c12` [Compound 142, N-(4-Cyclopropoxypyridin-2-yl)-6-(1-cyclopropyl-1H-pyrazol-3-yl)-5-methyl-2-(1-methyl-1H-imidazol-2-yl)pyrrolo[2,1-f][1,2,4]triazin-4-amine] was tested, and the inhibition [1] was 25 to 49%, the “% inh … in Panc-1” value [2] was “C (C = 46-75% inhibition)” and the “KRas wild type + SOS: % inh.” value [3] was “D (D = 76-100% inhibition)”. The “KRas wild type: % inh.” value [3] was “D (D = 76-100% inhibition)”, the inhibition at 20 µM [4] was 76 to 100% and the “KRas G12D mutant + SOS: % inh.” value [5] was “D (D = 76-100% inhibition)”. The “KRas G12D mutant: % inh.” value [5] was “D (D = 76-100% inhibition)” and the inhibition at 10 µM [6] was 0%.
In the case of `Cc1c(-c2ccn(C)n2)cn2nc(-c3nccn3C)nc(Nc3cn(C(C)C)nn3)c12` [Compound 109, N-(1-Isopropyl-1H-1,2,3-triazol-4-yl)-5-methyl-2-(1-methyl-1H-imidazol-2-yl)-6-(1-methyl-1H-pyrazol-3-yl)pyrrolo[2,1-f][1,2,4]triazin-4-amine], the inhibition [1] is reported as 50 to 74%, the “% inh … in Panc-1” value [2] is reported as “D* (D* = 76-100% activation)” and the “KRas wild type + SOS: % inh.” value [3] is reported as “C (C = 50-75% inhibition)”. For the same compound, the “KRas wild type: % inh.” value [3] was “D (D = 76-100% inhibition)”, the inhibition at 20 µM [4] was 76 to 100% and the “KRas G12D mutant + SOS: % inh.” value [5] was “C (C = 50-75% inhibition)”. The “KRas G12D mutant: % inh.” value [5] was “D (D = 76-100% inhibition)” and the inhibition at 10 µM [6] was 0%.
In the case of `COc1ccnc(Nc2nc(-c3nccn3C)nn3cc(-c4ccn(C)n4)c(C)c23)c1` [Compound 102, N-(4-Methoxypyridin-2-yl)-5-methyl-2-(1-methyl-1H-imidazol-2-yl)-6-(1-methyl-1H-pyrazol-3-yl)pyrrolo[2,1-f][1,2,4]triazin-4-amine], the inhibition [1] is reported as 75 to 100%, the “% inh … in Panc-1” value [2] is reported as “A* (A* = 1-25% activation)” and the “KRas wild type + SOS: % inh.” value [3] is reported as “D (D = 76-100% inhibition)”. For the same compound, the “KRas wild type: % inh.” value [3] was “D (D = 76-100% inhibition)”, the inhibition at 20 µM [4] was 76 to 100% and the “KRas G12D mutant + SOS: % inh.” value [5] was “D (D = 76-100% inhibition)”. The “KRas G12D mutant: % inh.” value [5] was “D (D = 76-100% inhibition)” and the inhibition at 10 µM [6] was 25 to 49%.
With `CO[C@@H]1CC[C@@H](Nc2nc(-c3nccn3C)nn3cc(-c4ccn(C)n4)c(C)c23)C1` (racemic) [Compound 132, rac N-((1R,3R)-3-Methoxycyclopentyl)-5-methyl-2-(1-methyl-1H-imidazol-2-yl)-6-(1-methyl-1H-pyrazol-3-yl)pyrrolo[2,1-f][1,2,4]triazin-4-amine] the inhibition [1] was 0%, the “% inh … in Panc-1” value [2] was “A* (A* = 1-25% activation)” and the “KRas wild type + SOS: % inh.” value [3] was 0 (0 = 0% inhibition). For the same compound, the “KRas wild type: % inh.” value [3] was “B (B = 26-49% inhibition)”, the inhibition at 20 µM [4] was 1 to 25% and the “KRas G12D mutant + SOS: % inh.” value [5] was “A (A = 1-25% inhibition)”. The “KRas G12D mutant: % inh.” value [5] was “B (B = 26-49% inhibition)” and the inhibition at 10 µM [6] was 0%.
`COCCO[C@H]1C[C@H](Nc2nc(-c3nccn3C)nn3cc(-c4cccnc4)c(C)c23)C1` [Compound 152, N-((1r,3r)-3-(2-methoxyethoxy)cyclo-butyl)-5-methyl-2-(1-methyl-1H-imidazol-2-yl)-6-(pyridin-3-yl)pyrrolo[2,1-f][1,2,4]triazin-4-amine] was tested, and the inhibition [1] was 1 to 24%, the “% inh … in Panc-1” value [2] was “A (A = 1-25% inhibition)” and the “KRas wild type + SOS: % inh.” value [3] was “B (B = 26-49% inhibition)”. The “KRas wild type: % inh.” value [3] was “C (C = 50-75% inhibition)”, the inhibition at 20 µM [4] was 50 to 75% and the “KRas G12D mutant + SOS: % inh.” value [5] was “C (C = 50-75% inhibition)”. The “KRas G12D mutant: % inh.” value [5] was “C (C = 50-75% inhibition)” and the inhibition at 10 µM [6] was 0%.
In the case of `CO[C@H]1C[C@H](Nc2nc(-c3nccn3C)nn3cc(-c4cccnc4)c(C)c23)C1` [Compound 151, N-((1r,3r)-3-Methoxycyclobutyl)-5-methyl-2-(1-methyl-1H-imidazol-2-yl)-6-(pyridin-3-yl)pyrrolo[2,1-f][1,2,4]triazin-4-amine], the inhibition [1] is reported as 0%, the “% inh … in Panc-1” value [2] is reported as “A (A = 1-25% inhibition)” and the “KRas wild type + SOS: % inh.” value [3] is reported as “C (C = 50-75% inhibition)”. For the same compound, the “KRas wild type: % inh.” value [3] was “C (C = 50-75% inhibition)”, the inhibition at 20 µM [4] was 50 to 75% and the “KRas G12D mutant + SOS: % inh.” value [5] was “D (D = 76-100% inhibition)”. The “KRas G12D mutant: % inh.” value [5] was “B (B = 26-49% inhibition)” and the inhibition at 10 µM [6] was 0%.
`CO[C@H]1CC[C@@H](Nc2nc(-c3nccn3C)nn3cc(-c4ccn(C)n4)c(C)c23)C1` (racemic) [Compound 133, rac N-((1R,3S)-3-Methoxycyclopentyl)-5-methyl-2-(1-methyl-1H-imidazol-2-yl)-6-(1-methyl-1H-pyrazol-3-yl)pyrrolo[2,1-f][1,2,4]triazin-4-amine] was tested, and the inhibition [1] was 0%, the “% inh … in Panc-1” value [2] was “A (A = 1-25% inhibition)” and the “KRas wild type + SOS: % inh.” value [3] was 0 (0 = 0% inhibition). The “KRas wild type: % inh.” value [3] was “A (A = 1-25% inhibition)”, the inhibition at 20 µM [4] was 1 to 25% and the “KRas G12D mutant + SOS: % inh.” value [5] was 0 (0 = 0% inhibition). The “KRas G12D mutant: % inh.” value [5] was “B (B = 26-49% inhibition)” and the inhibition at 10 µM [6] was 1 to 24%.
With `Cc1c(-c2ccn(C3CC3)n2)cn2nc(-c3nccn3C)nc(Nc3cc(OC(F)(F)F)ccn3)c12` [Compound 138, 6-(1-Cyclopropyl-1H-pyrazol-3-yl)-5-methyl-2-(1-methyl-1H-imidazol-2-yl)-N-(4-(trifluoromethoxy)pyridin-2-yl)pyrrolo[2,1-f][1,2,4]triazin-4-amine] the inhibition [1] was 50 to 74%, the “% inh … in Panc-1” value [2] was “A* (A* = 1-25% activation)” and the “KRas wild type + SOS: % inh.” value [3] was “D (D = 76-100% inhibition)”. For the same compound, the “KRas wild type: % inh.” value [3] was “C (C = 50-75% inhibition)”, the inhibition at 20 µM [4] was 50 to 75% and the “KRas G12D mutant + SOS: % inh.” value [5] was “D (D = 76-100% inhibition)”. For the same compound, the “KRas G12D mutant: % inh.” value [5] was “D (D = 76-100% inhibition)” and the inhibition at 10 µM [6] was 0%.
With `COc1cccnc1Nc1nc(-c2nccn2C)nn2cc(-c3ccn(C)n3)c(C)c12` [Compound 112, N-(3-Methoxypyridin-2-yl)-5-methyl-2-(1-methyl-1H-imidazol-2-yl)-6-(1-methyl-1H-pyrazol-3-yl)pyrrolo[2,1-f][1,2,4]triazin-4-amine] the inhibition [1] was 25 to 49%, the “% inh … in Panc-1” value [2] was “D* (D* = 76-100% activation)” and the “KRas wild type + SOS: % inh.” value [3] was 0 (0 = 0% inhibition). The “KRas wild type: % inh.” value [3] was “A (A = 1-25% inhibition)”, the inhibition at 20 µM [4] was 0% and the “KRas G12D mutant + SOS: % inh.” value [5] was “A (A = 1-25% inhibition)”. For the same compound, the “KRas G12D mutant: % inh.” value [5] was “A (A = 1-25% inhibition)” and the inhibition at 10 µM [6] was 0%.
For `Cc1c(-c2ccn(C3CC3)n2)cn2nc(-c3nccn3C)nc(Nc3cc(O)ccn3)c12` [Compound 150, 2-((6-(1-Cyclopropyl-1H-pyrazol-3-yl)-5-methyl-2-(1-methyl-1H-imidazol-2-yl)pyrrolo[2,1-f][1,2,4]triazin-4-yl)amino)pyridin-4-ol], the inhibition [1] was 1 to 24%, the “% inh … in Panc-1” value [2] was “A (A = 1-25% inhibition)” and the “KRas wild type + SOS: % inh.” value [3] was “D (D = 76-100% inhibition)”. For the same compound, the “KRas wild type: % inh.” value [3] was “D (D = 76-100% inhibition)”, the inhibition at 20 µM [4] was 50 to 75% and the “KRas G12D mutant + SOS: % inh.” value [5] was “D (D = 76-100% inhibition)”. For the same compound, the “KRas G12D mutant: % inh.” value [5] was “D (D = 76-100% inhibition)” and the inhibition at 10 µM [6] was 0%.
